From publication PMC8523698, “Preclinical characterization of an intravenous coronavirus 3CL protease inhibitor for the potential treatment of COVID19” (Nature Communications, 2021)
Where “and” joins values, the source holds several entries; their conditions need not be identical. Identical values can stand only once. Like-named read-outs stand apart in the source and are kept apart here.

Assays:
[1] = tested on: CYP3A4/5; experiment: Reversible CYP inhibition in human liver microsomes; details: for IC50: at approximately KM
[2] = biological target: T1, OCT2 (Homo sapiens, UniProt O15244); experiment: Transporter inhibition using transfected HEK293 cells
T1 sequence (O15244 1-555): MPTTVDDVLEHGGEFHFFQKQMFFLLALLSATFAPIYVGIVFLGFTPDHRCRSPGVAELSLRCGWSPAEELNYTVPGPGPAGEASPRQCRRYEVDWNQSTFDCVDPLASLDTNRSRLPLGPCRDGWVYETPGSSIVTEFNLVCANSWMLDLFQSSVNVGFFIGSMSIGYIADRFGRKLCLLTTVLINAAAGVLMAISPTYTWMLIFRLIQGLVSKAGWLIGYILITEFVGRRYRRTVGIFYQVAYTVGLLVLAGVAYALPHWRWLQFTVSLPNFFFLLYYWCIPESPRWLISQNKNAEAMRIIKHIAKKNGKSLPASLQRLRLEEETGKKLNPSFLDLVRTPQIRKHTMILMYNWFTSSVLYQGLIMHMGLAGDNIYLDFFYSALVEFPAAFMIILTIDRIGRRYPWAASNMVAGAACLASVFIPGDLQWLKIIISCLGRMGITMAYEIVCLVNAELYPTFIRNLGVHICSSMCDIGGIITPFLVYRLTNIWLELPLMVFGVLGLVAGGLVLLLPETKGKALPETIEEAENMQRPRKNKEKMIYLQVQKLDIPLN

[3] = Human blood hemocompatibility (hemolysis, flocculation)
[4] = 300 mg/kg dose group
[5] = biological target: CYP3A4/5; experiment: Time-dependent inhibition of CYP enzymes in human liver microsomes

## COc1cccc2[nH]c(C(=O)N[C@@H](CC(C)C)C(=O)N[C@@H](C[C@@H]3CCNC3=O)C(=O)CO)cc12 [PF-00835231]
[1]; CYP 3A4/5 (tst), 43.8 µM, 30-Minute Preincubation
  Percent of Control Activity: 71.6%
[1]; CYP 3A4/5 (tst), 43.8 µM, Zero-Minute Preincubation
  Percent of Control Activity: 96.7%
[1]; CYP 3A4/5 (tst), 93.5 µM, 30-Minute Preincubation
  Percent of Control Activity: 42.9% and 41.8%
[1]; CYP 3A4/5 (tst), 93.5 µM, Zero-Minute Preincubation
  Percent of Control Activity: 60.1%
[1]; CYP 3A4/5 (tst), 200 µM, 30-Minute Preincubation
  Percent of Control Activity: 26.6%
[1]; CYP 3A4/5 (tst), 200 µM, Zero-Minute Preincubation
  Percent of Control Activity: 39.6% and 35.7%
[1]; human, human liver microsomes, pH 7.4, probe midazolam (1′-hydroxylation), IC50, Midazolam 1′-hydroxylation, T0
  IC50: > 200 µM
[1]; human, human liver microsomes, pH 7.4, probe midazolam (1′-hydroxylation), IC50, Midazolam 1′-hydroxylation, T30
  IC50: > 200 µM
[1]; human, human liver microsomes, pH 7.4, probe midazolam (mdz), Percent of Control Activity, CYP 3A4/5 (mdz), 0.1 µM, 30-Minute Preincubation
  activity at 0.1 µM: 113%
[1]; human, human liver microsomes, pH 7.4, probe midazolam (mdz), Percent of Control Activity, CYP 3A4/5 (mdz), 0.214 µM, 30-Minute Preincubation
  activity at 0.214 µM: 111%
[1]; human, human liver microsomes, pH 7.4, probe midazolam (mdz), Percent of Control Activity, CYP 3A4/5 (mdz), 0.214 µM, Zero-Minute Preincubation
  activity at 0.214 µM: 107%
[1]; human, human liver microsomes, pH 7.4, probe midazolam (mdz), Percent of Control Activity, CYP 3A4/5 (mdz), 0.979 µM, 30-Minute Preincubation
  activity at 0.979 µM: 113%
[1]; human, human liver microsomes, pH 7.4, probe midazolam (mdz), Percent of Control Activity, CYP 3A4/5 (mdz), 0.979 µM, Zero-Minute Preincubation
  activity at 0.979 µM: 115%
[1]; human, human liver microsomes, pH 7.4, probe midazolam (mdz), Percent of Control Activity, CYP 3A4/5 (mdz), 2.09 µM, 30-Minute Preincubation
  activity at 2.09 µM: 112%
[1]; human, human liver microsomes, pH 7.4, probe midazolam (mdz), Percent of Control Activity, CYP 3A4/5 (mdz), 2.09 µM, Zero-Minute Preincubation
  activity at 2.09 µM: 100%
[1]; human, human liver microsomes, pH 7.4, probe midazolam (mdz), Percent of Control Activity, CYP 3A4/5 (mdz), 4.48 µM, 30-Minute Preincubation
  activity at 4.48 µM: 106%
[1]; human, human liver microsomes, pH 7.4, probe midazolam (mdz), Percent of Control Activity, CYP 3A4/5 (mdz), 43.8 µM, 30-Minute Preincubation
  activity at 43.8 µM: 88.1%
[1]; human, human liver microsomes, pH 7.4, probe midazolam (mdz), Percent of Control Activity, CYP 3A4/5 (mdz), 93.5 µM, 30-Minute Preincubation
  activity at 93.5 µM: 72.3%
[1]; human, human liver microsomes, pH 7.4, probe midazolam (mdz), Percent of Control Activity, CYP 3A4/5 (mdz), 93.5 µM, Zero-Minute Preincubation
  activity at 93.5 µM: 113%
[1]; human, human liver microsomes, pH 7.4, probe midazolam (mdz), Percent of Control Activity, CYP 3A4/5 (mdz), 200 µM, 30-Minute Preincubation
  activity at 200 µM: 54.3%
[1]; human, human liver microsomes, pH 7.4, probe midazolam (mdz), Percent of Control Activity, CYP 3A4/5 (mdz), 200 µM, Zero-Minute Preincubation
  activity at 200 µM: 107%
[1]; human, human liver microsomes, pH 7.4, probe testosterone (6β-hydroxylation), IC50 (confidence interval), Testosterone 6β-hydroxylation, T0
  IC50: 108 µM
[1]; human, human liver microsomes, pH 7.4, probe testosterone (6β-hydroxylation), IC50 (confidence interval), Testosterone 6β-hydroxylation, T30
  IC50: 62.4 µM
[1]; human, human liver microsomes, pH 7.4, probe testosterone (tst), Percent of Control Activity, CYP 3A4/5 (tst), 0.1 µM, 30-Minute Preincubation
  activity at 30 min, 0.1 µM: 92.1%
[1]; human, human liver microsomes, pH 7.4, probe testosterone (tst), Percent of Control Activity, CYP 3A4/5 (tst), 0.1 µM, Zero-Minute Preincubation
  activity at 0.1 µM: 88.6%
[1]; human, human liver microsomes, pH 7.4, probe testosterone (tst), Percent of Control Activity, CYP 3A4/5 (tst), 0.214 µM, 30-Minute Preincubation
  activity at 30 min, 0.214 µM: 115%
[1]; human, human liver microsomes, pH 7.4, probe testosterone (tst), Percent of Control Activity, CYP 3A4/5 (tst), 0.979 µM, 30-Minute Preincubation
  activity at 30 min, 0.979 µM: 116%
[1]; human, human liver microsomes, pH 7.4, probe testosterone (tst), Percent of Control Activity, CYP 3A4/5 (tst), 0.979 µM, Zero-Minute Preincubation
  activity at 0 min, 0.979 µM: 114%
[1]; human, human liver microsomes, pH 7.4, probe testosterone (tst), Percent of Control Activity, CYP 3A4/5 (tst), 2.09 µM, Zero-Minute Preincubation
  activity at 0 min, 2.09 µM: 109%
[1]; human, human liver microsomes, pH 7.4, probe testosterone (tst), Percent of Control Activity, CYP 3A4/5 (tst), 43.8 µM, 30-Minute Preincubation
  activity at 43.8 µM: 73.4%
[1]; human, human liver microsomes, pH 7.4, probe testosterone (tst), Percent of Control Activity, CYP 3A4/5 (tst), 43.8 µM, Zero-Minute Preincubation
  activity at 43.8 µM: 75.3%
[1]; human, human liver microsomes, pH 7.4, probe testosterone (tst), Percent of Control Activity, CYP 3A4/5 (tst), 93.5 µM, 30-Minute Preincubation
  activity at 93.5 µM: 37.7%
[1]; human, human liver microsomes, pH 7.4, probe testosterone (tst), Percent of Control Activity, CYP 3A4/5 (tst), 93.5 µM, Zero-Minute Preincubation
  activity at 93.5 µM: 54.9%
[1]; human, human liver microsomes, pH 7.4, probe testosterone (tst), Percent of Control Activity, CYP 3A4/5 (tst), 200 µM, 30-Minute Preincubation
  activity at 200 µM: 15.1%
[1]; human, human liver microsomes, pH 7.4, probe testosterone (tst), Percent of Control Activity, CYP 3A4/5 (tst), 200 µM, Zero-Minute Preincubation
  activity at 200 µM: 36.4%
[2]
  IC50: > 300 µM
[2]; human, HEK293 cells stably transfected with OCT2, pH 7.4, probe [14C]-metformin (20 µM)
  IC50: > 20 µM
[3]
  hemolysis or flocculation/turbidity parameters: no effect on hemolysis or flocculation/turbidity parameters
[4]
  Cmin unbound exposure: 1700 nM
[5]; Midazolam (20 µM)
  KI ± SE: 163 ± 31 µM
[5]; Midazolam (20 µM), listed as PF00835231
  KI ± SE: 163 µM
[5]; Testosterone ([…])
  KI ± SE: 168 ± 8 µM
[5]; pooled HLM
  time-dependent inhibition (TDI) signal: weak signal
